How the values were obtained:
HL-60 = test: Cytotoxicity against human promyelocytic leukemia HL60 cell line by MTT assay; assay type: cell-based
[1] = Partition coefficient, log P of the compound; assay type: physicochemical; conditions: octanol/water

Compound | IC50 (HL-60) [µM] | logP ([1]; read-out: LogP) | logP [1]
CC(C)CCC1=C(O)C(=O)c2ccccc2C1=O | 62.1 | 4.1 | –
CC(=O)OC1CC2=C(OC1(C)C)c1ccccc1C(=O)C2=O (configuration not stated) | 0.68 | 3 | –
CC1(C)OC2=C(CC1Br)C(=O)C(=O)c1ccccc12 (configuration not stated) | 0.13 | 3.6 | –
CC1(C)OC2=C(C=C1Br)C(=O)C(=O)c1ccccc12 | 0.2 | 3.5 | –
CC1(C)Oc2c(c3nccnc3c3ccccc23)CC1O (configuration not stated) | 28.2 | 3.2 | –
CC1(C)OC2=C(C(=O)C(=O)c3ccccc32)C(O)C1Br (configuration not stated) | 0.12 | 3.1 | –
CC1(C)C[C@H](O)C2=C(O1)c1ccccc1C(=O)C2=O | 0.57 | 2.2 | –
CO[C@@H](C(=O)O[C@@H]1CC2=C(OC1(C)C)c1ccccc1C(=O)C2=O)c1ccccc1 | 0.26 | 5 | –
CC(C)=CCC1=C(O[Si](C)(C)C(C)(C)C)C(=O)c2ccccc2C1=O | 11.4 | 7.3 | –
CC1(C)Oc2c(c3nc4c(nc3c3ccccc23)CCCC4)CC1O (configuration not stated) | 13.4 | 4.8 | –
CC1(C)OC2=C(CC1O)C(=O)c1ccccc1C2=O (configuration not stated) | 1.35 | 2.7 | –
CC1(C)OC2=C(CC1Br)C(=O)c1ccccc1C2=O (configuration not stated) | 1.36 | 4.1 | –
COc1cc(C(=O)OC2=C(CC=C(C)C)C(=O)c3ccccc3C2=O)cc(OC)c1OC | 8.06 | 6.3 | –
CC(C)(O)C1CC2=C(O1)c1ccccc1C(=O)C2=O (configuration not stated) | 1.97 | 1.6 | –
CC(=O)OC1=C(CC=C(C)C)C(=O)c2ccccc2C1=O | 4.51 | 4.5 | –
CC(=O)OC1=C(CC(O)C(C)(C)O)C(=O)c2ccccc2C1=O (configuration not stated) | 48.1 | 1.8 | –
CC(C)CCC1=C(O)C(=O)C2=C(CCCC2)C1=O | 34.6 | 4.2 | –
COCOC1=C(CCC(C)C)C(=O)c2ccccc2C1=O | 53.9 | 4.4 | –
CC(C)=CCC1=C2NC3CCCCC3N=C2c2ccccc2C1=O (configuration not stated) | 15.5 | 4.2 | –
CC(=O)OC1=C(CC2OC2(C)C)C(=O)c2ccccc2C1=O (configuration not stated) | 1.89 | 3 | –
CC1(C)Oc2c(c3nccnc3c3ccccc23)CC1Br (configuration not stated) | 24.1 | 4.8 | –
CC(C)(O)C1Cc2c(c3ccccc3c3nccnc23)O1 (configuration not stated) | 44.1 | 2.5 | –
CCOC1CCC2=C(O1)C(=O)c1ccccc1C2=O (configuration not stated) | 29.7 | 2.8 | –
CC(=O)OC1=C(CC(Br)C(C)(C)Br)C(=O)c2ccccc2C1=O (configuration not stated) | 2.23 | 5.1 | –
CC1(C)CCc2c(c3ccccc3c3nc4c(nc23)CCCC4)O1 | ≥ 100 | 6.4 | –
CO[C@@H](C(=O)O[C@H]1CC2=C(OC1(C)C)c1ccccc1C(=O)C2=O)c1ccccc1 | 0.11 | 5 | –

Compound | IC50 (HL-60) [µM] | logP ([1]; read-out: LogP) | logP [1]
CC(C)(O)C1CC(=O)c2nccnc2-c2ccccc2C(=O)O1 (configuration not stated) | > 100 | 2.4 | –
CC1(C)CCC(=O)c2nccnc2-c2ccccc2C(=O)O1 | 47.1 | 3.9 | –
CC(C)C(=O)OC1CC2=C(OC1(C)C)c1ccccc1C(=O)C2=O (configuration not stated) | 0.24 | 3.8 | –
O=C1C2=C(OC(c3ccccc3)C2)C(=O)c2ccccc21 (configuration not stated) | 2.65 | 3.7 | –
CC1(C)CCC2=C(O1)c1ccccc1/C(=N/O)C2=O | 3.2 | 4.6 | –
Cc1ccc(CC2=C(O)C(=O)c3ccccc3C2=O)o1 | 68.2 | 3.6 | –
O=C1C2=C(OC(c3ccccc3)CC2)C(=O)c2ccccc21 (configuration not stated) | 22.9 | 4.7 | –
CC(C)(O)C1Cc2c(O)c([N+](=O)[O-])c3ccccc3c2O1 (configuration not stated) | 47 | 2.7 | –
CC(C)(O[N+](=O)[O-])C1CC2=C(O1)C(=O)c1ccccc1C2=O (configuration not stated) | 1.24 | 3.4 | –
CC(=O)OC1=C(CC(Br)C(C)(C)O)C(=O)c2ccccc2C1=O (configuration not stated) | 0.52 | 3.5 | –
CC(C)=CC1=C(O)C(=O)c2ccccc2C1=O | 27.7 | 3.2 | –
CC(C)(O)C1CC2=C(O1)C(=O)c1ccccc1C2=O (configuration not stated) | 1.85 | 2 | –
CCCCCCCCCCCC(=O)OC1=C(CC=C(C)C)C(=O)c2ccccc2C1=O | 26.3 | – | 9.9
CC1(C)C[C@@H](O)C2=C(O1)c1ccccc1C(=O)C2=O | 0.55 | 2.2 | –
CC(=O)OC1Cc2c(c3ccccc3c3nc4c(nc23)CCCC4)OC1(C)C (configuration not stated) | 24.2 | 5.7 | –
CC(C)(Br)C1CC2=C(O1)c1ccccc1C(=O)C2=O (configuration not stated) | 0.7 | 3.2 | –
CC(C)(O)C1Cc2c(c3ccccc3c3nc4c(nc23)CCCC4)O1 (configuration not stated) | 31.9 | 4.2 | –
CCCCCCCCCCCC(=O)OC1CC2=C(OC1(C)C)c1ccccc1C(=O)C2=O (configuration not stated) | 0.26 | 8.3 | –
CC1(C)CCc2c(c3ccccc3c3nccnc23)O1 | 23.7 | 4.7 | –
CC1(C)OC2=C(CC1OC(=O)c1ccc(C#N)cc1)C(=O)C(=O)c1ccccc12 (racemic) | 0.13 | 4.7 | –
CC1(C)OC2=C(CC1OC(=O)c1ccc(Br)cc1)C(=O)C(=O)c1ccccc12 (racemic) | 0.45 | 5.8 | –
CC1(C)CCC2=C(O1)C(=O)c1ccccc1C2=O [ALPHA-LAPACHONE] | 13.5 | 3.5 | –
C=C(C)C1CC2=C(O1)C(=O)c1ccccc1C2=O (stereo not drawn) [DEHYDROISO-ALPHA-LAPACHONE] | 1.46 | 3.4 | –
CC(C)=CCC1=C(O)C(=O)c2ccccc2C1=O [LAPACHOL] | 3.18 | 4.1 | –
CC1(C)CCC2=C(O1)c1ccccc1C(=O)C2=O [LAPACHONE] | 0.27 | 3.2 | –
